Patent US20020001582A1, “Methods and compositions for inhibiting microbial growth” (priority 1999, published 2002)

Tests used:
Fusarium = assay: Lysozyme against Fusarium, plug in PD broth; format: cell-based
Procedure: PD broth was prepared and autoclaved in dilution bottles (100 ml) and allowed to cool. Required amounts of lysozyme were added into the bottles and dissolved. […] A square of Fusarium (5-10 mm square “plug”) was cut and placed in/near the center of each dish. The plates were incubated at room temperature for 2 weeks. The trial was carried out in triplicate and was repeated three times.
The fungal growth was quantified by measuring the diameter of Fusarium growth and the coverage of the plates by the fungus. The measurements (given in mm) also include the size of the inoculum plug inserted into the plate of media. The color change and the change in the physical appearance (fuzzy, not fuzzy) were also monitored. The Fusarium growth is pink to dark pink. All the numbers shown are the averages of three replicates for each treatment. The diameter of the plate was approximately 85 mm.

[1] = tested on: Phytophthora cinnamomi (IM194); assay: Inhibition of Phytophthora by lysozyme in PD broth, % plate coverage; format: cell-based; conditions: for fungal growth (% plate coverage): 2 weeks after inoculation
Procedure: Potato dextrose broth was prepared, poured into glass dilution bottles (100 ml each), autoclaved and allowed to cool. […] A fungal square (plug) of each culture was cut and placed in/near the center of each plate. Fungal growth was quantified by measuring the diameter of growth of each fungus while it was growing on the liquid media in each petri dish using a ruler. Each treatment was done in triplicate.
The experiment was repeated three times (three batches). The observation period for each batch was 2 weeks.
The fungal growth was expressed in % coverage of the petri dishes by the fungal patches. The calculation can be presented in the following equation:
Fungal growth (%)=(area of fungal patch/total plate area)×100

## lysozyme: type c egg white lysozyme, enzyme of approximately 129 amino acids; commercially available from Canadian Inovatech, Inc.
Fusarium; 250 ppm, broth turned yellow after 10 days
  Fusarium growth: quite limited
Fusarium; Batch 1, 25 ppm, day 0 (inoculum plug)
  diameter of Fusarium growth: 9.3 mm
Fusarium; Batch 1, 25 ppm, day 4
  growth, color and physical appearance: Confluent, pink
Fusarium; Batch 1, 25 ppm, day 7
  growth, color and physical appearance: Confluent, dark
Fusarium; Batch 1, 25 ppm, day 11
  growth, color and physical appearance: Confluent, dark
Fusarium; Batch 1, 50 ppm, day 0 (inoculum plug)
  diameter of Fusarium growth: 9.7 mm
Fusarium; Batch 1, 50 ppm, day 4
  growth, color and physical appearance: Confluent, pink
Fusarium; Batch 1, 50 ppm, day 7
  growth, color and physical appearance: Confluent, dark
Fusarium; Batch 1, 50 ppm, day 11
  growth, color and physical appearance: Confluent, dark
Fusarium; Batch 1, 75 ppm, day 0 (inoculum plug)
  diameter of Fusarium growth: 8.3 mm
Fusarium; Batch 1, 75 ppm, day 4
  coverage of the plates by the fungus: 36.7% covered
  diameter of Fusarium growth: 23.7 mm
Fusarium; Batch 1, 75 ppm, day 7
  coverage of the plates by the fungus: 60% covered
  diameter of Fusarium growth: 27.0 mm
Fusarium; Batch 1, 75 ppm, day 11
  growth, color and physical appearance: Confluent, dark
Fusarium; Batch 1, 100 ppm, day 0 (inoculum plug)
  diameter of Fusarium growth: 8.0 mm
Fusarium; Batch 1, 100 ppm, day 4
  coverage of the plates by the fungus: 26.7% covered
  diameter of Fusarium growth: 23.7 mm
Fusarium; Batch 1, 100 ppm, day 7
  coverage of the plates by the fungus: 46.7% covered
  diameter of Fusarium growth: 28.3 mm
Fusarium; Batch 1, 100 ppm, day 11
  coverage of the plates by the fungus: 80% covered
  growth, color and physical appearance: Dark pink
Fusarium; Batch 1, 250 ppm, day 0 (inoculum plug)
  diameter of Fusarium growth: 8.7 mm
Fusarium; Batch 1, 250 ppm, day 4
  diameter of Fusarium growth: 16.0 mm
Fusarium; Batch 1, 250 ppm, day 7
  diameter of Fusarium growth: 22.0 mm
Fusarium; Batch 1, 250 ppm, day 11
  coverage of the plates by the fungus: 29.7% covered
  growth, color and physical appearance: Yellow broth
Fusarium; Batch 2, 25 ppm, day 0 (inoculum plug)
  diameter of Fusarium growth: 7.8 mm
Fusarium; Batch 2, 25 ppm, day 4
  coverage of the plates by the fungus: 76.7%
  growth, color and physical appearance: dark peach
Fusarium; Batch 2, 25 ppm, day 6
  coverage of the plates by the fungus: 88.3%
  growth, color and physical appearance: pink
Fusarium; Batch 2, 25 ppm, day 8
  coverage of the plates by the fungus: 91.7%
  growth, color and physical appearance: dark pink
Fusarium; Batch 2, 25 ppm, day 11
  coverage of the plates by the fungus: 91.7%
  growth, color and physical appearance: dark pink
Fusarium; Batch 2, 25 ppm, day 14
  coverage of the plates by the fungus: 91.7%
  growth, color and physical appearance: dark pink,
Fusarium; Batch 2, 50 ppm, day 0 (inoculum plug)
  diameter of Fusarium growth: 7.5 mm
Fusarium; Batch 2, 50 ppm, day 4
  coverage of the plates by the fungus: 43.3%
  growth, color and physical appearance: peach
Fusarium; Batch 2, 50 ppm, day 6
  coverage of the plates by the fungus: 60%
  growth, color and physical appearance: pink
Fusarium; Batch 2, 50 ppm, day 8
  coverage of the plates by the fungus: 61.7%
  growth, color and physical appearance: dark pink
Fusarium; Batch 2, 50 ppm, day 11
  coverage of the plates by the fungus: 68.3%
  growth, color and physical appearance: dark pink
Fusarium; Batch 2, 50 ppm, day 14
  coverage of the plates by the fungus: 55.0%
  growth, color and physical appearance: dark pink,
Fusarium; Batch 2, 75 ppm, day 0 (inoculum plug)
  diameter of Fusarium growth: 8.0 mm
Fusarium; Batch 2, 75 ppm, day 4
  coverage of the plates by the fungus: 13.3%
  diameter of Fusarium growth: 21.3 mm
  growth, color and physical appearance: peach
Fusarium; Batch 2, 75 ppm, day 6
  coverage of the plates by the fungus: 40%
  growth, color and physical appearance: pink
Fusarium; Batch 2, 75 ppm, day 8
  coverage of the plates by the fungus: 46.7%
  growth, color and physical appearance: pink
Fusarium; Batch 2, 75 ppm, day 11
  coverage of the plates by the fungus: 61.7%
  growth, color and physical appearance: dark pink
Fusarium; Batch 2, 75 ppm, day 14
  coverage of the plates by the fungus: 68.3%
  growth, color and physical appearance: dark pink,
Fusarium; Batch 2, 100 ppm, day 0 (inoculum plug)
  diameter of Fusarium growth: 7.8 mm
Fusarium; Batch 2, 100 ppm, day 4
  diameter of Fusarium growth: 22.3 mm
  growth, color and physical appearance: peach
Fusarium; Batch 2, 100 ppm, day 6
  diameter of Fusarium growth: 20.0 mm
  growth, color and physical appearance: light peach
Fusarium; Batch 2, 100 ppm, day 8
  coverage of the plates by the fungus: 30.3%
  growth, color and physical appearance: pink
Fusarium; Batch 2, 100 ppm, day 11
  diameter of Fusarium growth: 37 mm
  growth, color and physical appearance: pink/yellow
Fusarium; Batch 2, 100 ppm, day 14
  diameter of Fusarium growth: 42.7 mm
  growth, color and physical appearance: pink, fuzzy
Fusarium; Batch 2, 250 ppm, day 0 (inoculum plug)
  diameter of Fusarium growth: 7.3 mm
Fusarium; Batch 2, 250 ppm, day 4
  diameter of Fusarium growth: 17.0 mm
  growth, color and physical appearance: light peach
Fusarium; Batch 2, 250 ppm, day 6
  diameter of Fusarium growth: 19.7 mm
  growth, color and physical appearance: very light
Fusarium; Batch 2, 250 ppm, day 8
  diameter of Fusarium growth: 22 mm
  growth, color and physical appearance: dark peach
Fusarium; Batch 2, 250 ppm, day 11
  diameter of Fusarium growth: 25.7 mm
  growth, color and physical appearance: yellow broth
Fusarium; Batch 2, 250 ppm, day 14
  diameter of Fusarium growth: 35.0 mm
  growth, color and physical appearance: pink, fuzzy
Fusarium; Batch 3, 25 ppm, day 0 (inoculum plug)
  diameter of Fusarium growth: 8.2 mm
Fusarium; Batch 3, 25 ppm, day 4
  coverage of the plates by the fungus: 25% covered
  diameter of Fusarium growth: 26.3 mm
  growth, color and physical appearance: peach
Fusarium; Batch 3, 25 ppm, day 7
  coverage of the plates by the fungus: 33.3% covered
  diameter of Fusarium growth: 24.7 mm
  growth, color and physical appearance: pink, fuzzy
Fusarium; Batch 3, 25 ppm, day 11
  coverage of the plates by the fungus: 38.3%
  diameter of Fusarium growth: 31.3 mm
  growth, color and physical appearance: pink, fuzzy
Fusarium; Batch 3, 25 ppm, day 14
  coverage of the plates by the fungus: 45.0% covered,
  diameter of Fusarium growth: 32.0 mm
  growth, color and physical appearance: pink, fuzzy
Fusarium; Batch 3, 50 ppm, day 0 (inoculum plug)
  diameter of Fusarium growth: 7.5 mm
Fusarium; Batch 3, 50 ppm, day 4
  coverage of the plates by the fungus: 28.3% covered
  diameter of Fusarium growth: 22.7 mm
  growth, color and physical appearance: peach
Fusarium; Batch 3, 50 ppm, day 7
  coverage of the plates by the fungus: 41.7% covered
  diameter of Fusarium growth: 25.7 mm
  growth, color and physical appearance: pink, fuzzy
Fusarium; Batch 3, 50 ppm, day 11
  coverage of the plates by the fungus: 41.7%
  diameter of Fusarium growth: 28.0 mm
  growth, color and physical appearance: pink, fuzzy
Fusarium; Batch 3, 50 ppm, day 14
  coverage of the plates by the fungus: 48.3% covered,
  diameter of Fusarium growth: 29.3 mm
  growth, color and physical appearance: pink, fuzzy
Fusarium; Batch 3, 75 ppm, day 0 (inoculum plug)
  diameter of Fusarium growth: 8.2 mm
Fusarium; Batch 3, 75 ppm, day 4
  diameter of Fusarium growth: 25.2 mm
  growth, color and physical appearance: peach
Fusarium; Batch 3, 75 ppm, day 7
  diameter of Fusarium growth: 32.7 mm
  growth, color and physical appearance: pink, fuzzy
Fusarium; Batch 3, 75 ppm, day 11
  diameter of Fusarium growth: 41.0 mm
  growth, color and physical appearance: pink, fuzzy
Fusarium; Batch 3, 75 ppm, day 14
  coverage of the plates by the fungus: 38.1% covered,
  diameter of Fusarium growth: 43.7 mm
  growth, color and physical appearance: pink, fuzzy
Fusarium; Batch 3, 100 ppm, day 0 (inoculum plug)
  diameter of Fusarium growth: 8.7 mm
Fusarium; Batch 3, 100 ppm, day 4
  diameter of Fusarium growth: 21.7 mm
  growth, color and physical appearance: peach
Fusarium; Batch 3, 100 ppm, day 7
  diameter of Fusarium growth: 25.0 mm
  growth, color and physical appearance: pink, fuzzy
Fusarium; Batch 3, 100 ppm, day 11
  diameter of Fusarium growth: 26.0 mm
  growth, color and physical appearance: pink, fuzzy
Fusarium; Batch 3, 100 ppm, day 14
  coverage of the plates by the fungus: 34.9% covered,
  diameter of Fusarium growth: 26.7 mm
  growth, color and physical appearance: pink, fuzzy
Fusarium; Batch 3, 250 ppm, day 0 (inoculum plug)
  diameter of Fusarium growth: 7.3 mm
Fusarium; Batch 3, 250 ppm, day 4
  diameter of Fusarium growth: 12.2 mm
  growth, color and physical appearance: yellow
Fusarium; Batch 3, 250 ppm, day 7
  diameter of Fusarium growth: 20 mm
  growth, color and physical appearance: peach, fuzzy
Fusarium; Batch 3, 250 ppm, day 11
  diameter of Fusarium growth: 29.7 mm
Fusarium; Batch 3, 250 ppm, day 14
  diameter of Fusarium growth: 38.7 mm
  growth, color and physical appearance: peach with yellow
Fusarium; concentrations lower than 250 ppm, not as effective
  inhibition of Fusarium: some inhibition
[1]; 50 ppm
  fungal growth (% plate coverage): 50%
[1]; 100 ppm
  fungal growth (% plate coverage): 35%
[1]; 250, 500 or 1000 ppm, p<0.05
  fungal growth compared with 100, 50 or 0 ppm (Tukey test): significantly lower
[1]; 250 ppm
  fungal growth (% plate coverage): 7%
[1]; 500 ppm
  fungal growth (% plate coverage): 4%
